Laboratory results as given in article PMC8464939, “Epicatechin Gallate as Xanthine Oxidase Inhibitor: Inhibitory Kinetics, Binding Characteristics, Synergistic Inhibition, and Action Mechanism” (Foods, 2021).
Where two headings read alike, the source gives them in different places.

Columns and labels:
[1] = DPPH radical scavenging activity assay; settings: ECG 15 μM
Experimental: The DPPH free radical scavenging activity of ECG was tested according to Aalim et al. with slight modification. DPPH was dissolved in ethanol, and then different concentrations of ECG were added to prepare a series of samples. The mixed solutions were protected from light and reacted for 30 min. The absorbance of the samples at 517 nm was determined by an enzyme-labeled instrument (Varioskan LUX, Thermo Fisher Scientific, Waltham, MA, USA). An equal volume of ethanol was used as a control. The free radical scavenging activity of ECG was assessed by the change of percentage in absorbance.

xanthine oxidase (XO) [2] = target: T1, xanthine oxidase (XO) (Bos taurus, UniProt P80457); test: Inhibition of O2− radical generated by XO (NBT); format: biochemical, bovine; settings: XO 0.7 μM
T1 sequence (P80457 whole entry): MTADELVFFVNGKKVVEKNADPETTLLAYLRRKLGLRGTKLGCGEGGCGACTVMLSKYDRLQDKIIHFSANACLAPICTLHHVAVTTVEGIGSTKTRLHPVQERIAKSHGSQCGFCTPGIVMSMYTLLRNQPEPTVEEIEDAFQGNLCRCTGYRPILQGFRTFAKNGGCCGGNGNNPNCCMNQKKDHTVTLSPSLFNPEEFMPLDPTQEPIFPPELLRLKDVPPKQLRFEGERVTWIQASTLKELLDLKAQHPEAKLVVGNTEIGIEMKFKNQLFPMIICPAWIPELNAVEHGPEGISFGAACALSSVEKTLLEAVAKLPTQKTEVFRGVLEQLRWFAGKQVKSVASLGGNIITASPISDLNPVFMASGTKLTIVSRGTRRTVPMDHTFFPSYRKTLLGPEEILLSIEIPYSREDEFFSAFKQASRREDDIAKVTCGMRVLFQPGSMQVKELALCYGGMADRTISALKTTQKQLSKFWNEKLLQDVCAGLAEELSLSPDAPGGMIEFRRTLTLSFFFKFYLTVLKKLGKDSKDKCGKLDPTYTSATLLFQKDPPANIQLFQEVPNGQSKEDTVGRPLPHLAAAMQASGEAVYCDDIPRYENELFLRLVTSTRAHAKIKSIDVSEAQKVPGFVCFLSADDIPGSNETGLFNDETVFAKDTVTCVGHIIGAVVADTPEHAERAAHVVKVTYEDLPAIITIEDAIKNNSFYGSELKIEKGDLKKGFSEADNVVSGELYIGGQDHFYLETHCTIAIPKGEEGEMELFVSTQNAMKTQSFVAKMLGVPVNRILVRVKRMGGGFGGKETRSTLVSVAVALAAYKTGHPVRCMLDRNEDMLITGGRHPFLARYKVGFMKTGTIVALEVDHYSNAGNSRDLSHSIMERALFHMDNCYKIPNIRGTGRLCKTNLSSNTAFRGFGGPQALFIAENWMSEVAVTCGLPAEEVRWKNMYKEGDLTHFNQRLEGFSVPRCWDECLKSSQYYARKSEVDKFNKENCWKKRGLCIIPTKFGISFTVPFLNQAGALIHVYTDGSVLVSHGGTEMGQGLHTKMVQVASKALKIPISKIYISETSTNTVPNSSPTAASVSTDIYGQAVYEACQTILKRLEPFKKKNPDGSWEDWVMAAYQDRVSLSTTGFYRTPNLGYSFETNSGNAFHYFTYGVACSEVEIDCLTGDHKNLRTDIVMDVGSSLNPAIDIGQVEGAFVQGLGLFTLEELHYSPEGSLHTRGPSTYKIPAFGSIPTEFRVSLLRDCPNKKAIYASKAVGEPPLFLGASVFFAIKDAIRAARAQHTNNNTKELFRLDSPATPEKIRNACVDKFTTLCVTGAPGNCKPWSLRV
Experimental: The O2^− radicals generated during the catalytic process of XO could also be used to assess the antioxidant activity of ECG. The XO (0.70 μM) and different concentrations of ECG were mixed in Tris–HCl buffer and incubated at 37 °C for 30 min. Then, NBT (55.0 μM) and xanthine were added to the samples, respectively, and the absorbance of the mixture at 560 nm was recorded. A small amount of Triton X−100 (0.2%, v/v) was added for solubilization and the control group was equal volume ethanol.

XO = settings: cited from earlier work
xanthine oxidase (XO) [3] = target: T1, xanthine oxidase (XO); test: XO activity assay (uric acid formation, absorbance at 293 nm); format: biochemical, bovine
xanthine oxidase (XO) [4] = target: T1, xanthine oxidase (XO); test: Fluorescence microscopy imaging of XO; set-up: species or system bovine; settings: XO 1.0 μM; ECG 40.0 μM
Experimental: The free XO solution and the mixture of ECG and XO were prepared and incubated for 1h at room temperature. The appropriate amount of samples was placed on a microscope slide, and then the structural changes of XO induced by ECG were observed through a fluorescent inverted microscope with an excitation light of FBW (IX73, Olympus, Japan).

polyphenoloxidase = test system: polyphenoloxidase; set-up: method as in earlier work; settings: ref 41 (Sae-Leaw et al.); cited from earlier work
xanthine oxidase (XO) [5] = target: T1, xanthine oxidase (XO); test: Fluorescence titration experiments (quenching, binding, thermodynamics, 3D fluorescence); set-up: species or system bovine
Experimental: At three experimental temperatures (25, 31, and 37 °C), XO (1.0 μM) diluted in the Tris–HCl solution was placed in a 1.0 cm cuvette, and then ECG (0–30.0 μM) was added into XO solution successively to conduct the fluorescence titration experiments. After each addition, the fluorescence spectra of the mixed solutions within 300–500 nm were scanned at an excitation wavelength of 280 nm using a fluorescence photometer (F–7000, Hitachi, Japan). The width of the excitation and emission slit was 2.5 nm, respectively. Similarly, the synchronous fluorescence spectra of XO titrated by ECG were measured by setting the difference between excitation and emission wavelength (Δλem) to 15 and 60 nm, respectively. The free XO solution and a mixed sample of XO and ECG were prepared, and then the three-dimensional (3D) fluorescence spectra of the samples were determined; the scanning ranges of both excitation and emission wavelength were 200–600 nm. All fluorescence data were corrected to subtract the internal filtering effect by the following equation [34]:(4) Fc=Fme^(A1+A2)/2 where Fc and Fm represent the […] fluorescence intensity values, respectively; A1 and A2 are the absorbances of ECG at the excitation and emission wavelengths, respectively.
The changes of fluorescence spectra can reflect the binding characteristics between inhibitor and enzyme. […] The specific quenching mechanism of ECG on XO was determined by the relationship between quenching constant (KSV) and temperature, and the values of KSV and Kq (the quenching rate constant) were calculated by the well-known Stern–Volmer equation [44]. (6) F0/F=1+KSVQ=1+Kqτ0Q where F and F0 represent the fluorescence intensity values of XO with and without ECG, respectively; Q is the concentration of ECG; the value of the average fluorescence lifetime of fluorophore for biomacromolecules (τ0) is 10^−8 s. […] Furthermore, the binding constant (Ka) and the number of binding sites (n) were calculated through the following formula:(7) logF0−F/F=nlogKa−nlog1/Qt−(F0−F)Pt/F0 where [Qt] and [Pt] represent the concentrations of ECG and XO, respectively. […] The n values were close to 1, reflecting that XO had only one class of binding sites for ECG, which was consistent with the conclusions of enzyme kinetics analysis.
The values of thermodynamic parameters of the binding process between ECG and XO, such as entropy change (ΔS°), enthalpy change (ΔH°), and free energy change (ΔG°), were obtained by the van ‘t Hoff equation:
(9) ΔG=ΔH°−TΔS° where R is the gas constant (8.314 J mol^−1 K^−1), and T is the temperatures of fluorescence titration experiments (25, 31, and 37 °C). […] A similar study reported that the formation of the ECG–α-amylase complex was mainly driven by van der Waals and hydrogen bonds.

xanthine oxidase (XO) [6] = target: T1, xanthine oxidase (XO); test: CD spectra: secondary structure of XO; set-up: species or system bovine
Experimental: The CD spectrometer (Bio−Logic MOS 450, Claix, France) was used to determine the CD spectra to analyze the effects of ECG on the secondary structure of XO. The free XO (1.0 μM) and its mixed solutions with different molar ratios ([ECG]/[XO], 0:1, 10:1, 20:1 and 40:1) were prepared, and then the CD spectra of the samples in the range of 190−250 nm were measured in a nitrogen stream. The specific secondary structure contents were analyzed by our previous study.

xanthine oxidase (XO) [7] = target: T1, xanthine oxidase (XO); test: Kinetic analysis of enzyme-catalyzed reaction (Lineweaver–Burk); format: biochemical, bovine
Source text: The same determination method of enzyme activity was used to conduct the inhibition kinetics analysis of ECG on XO. In the presence of a series of different concentrations of ECG, the concentration of XO or xanthine was changed to determine the catalytic rate, and then the inhibition type was ascertained by the Lineweaver-Burk plots in double reciprocal form. […] Km, Ki, and α are on behalf of the Michaelis-Menten constant, dissociation constant, and apparent coefficient, respectively.

[8] = O2− radical scavenging activity assay (PMS–NADH system, NBT); settings: ECG 45.0 μM
Experimental: NBT could be reduced to blue formazan by O2^− radical produced by the PMS–NADH system; thus, this method was used to evaluate the O2^− radical scavenging activity of ECG [33]. The reaction solutions were prepared by mixing NBT (55.0 μM), NADH (0.27 mM), and different concentrations of ECG, and then 0.2 mL PMS (0.155 mM) was added to initiate the reaction. After the samples were incubated for 15 min, the absorbance at 560 nm was measured. Ethanol was used instead of ECG as the blank group, and the values of decreasing percentage in absorbance were calculated to analyze the scavenging activity of ECG.

[9] = read-out: IC50 for inhibiting XO activity
[10] = previous study of the authors, read-out: IC50 for inhibiting XO activity

## O=C(O[C@@H]1Cc2c(O)cc(O)cc2O[C@@H]1c1ccc(O)c(O)c1)c1cc(O)c(O)c(O)c1 [ECG, Epicatechin gallate]
[1]
  DPPH radical scavenged: 90%
Xanthine oxidase (XO) [2]; read-out: dose at which relative inhibition rate of production of O2− radical reached 50%
  IC50: 18.5 µM
Xanthine oxidase (XO) [2]; xanthine 0.1, 0.2, 0.5 mM
  relative inhibition rate of generation of O2− radical from XO catalysis (final plateau): 90%
XO; ref 12 (Yuan et al.), read-out: IC50 inhibiting XO
  IC50: 0.26 µM
Xanthine oxidase (XO) [3]; ECG 300 μM
  activity of XO at high ECG concentration: almost completely inhibited
Xanthine oxidase (XO) [3]; pH 7.4, XO 0.075 μM, xanthine 50.0 μM, read-out: IC50 for inhibiting XO activity
  IC50: 19.3 ± 0.45 µM
Xanthine oxidase (XO) [4]
  average area of green bright spots of XO with ECG: 172.31 μm^2
polyphenoloxidase
  inhibition type on polyphenoloxidase: mixed inhibitory effect
Xanthine oxidase (XO) [5]; 25, 31 and 37 °C
  n values: ~1
Xanthine oxidase (XO) [5]; 25, 31 and 37 °C, compared with maximum scattering collision rate constant
  Kq (quenching rate constant): > 2e+10 M⁻¹ s⁻¹
Xanthine oxidase (XO) [5]; 25, 31 and 37 °C, read-out: binding constant Ka, magnitude
  Kd: ~100 µM
Xanthine oxidase (XO) [5]; 298 K
  Ksv: 1.76 ± 0.02 ×10^4 L mol^−1
  n (number of binding sites): 0.91 ± 0.01
  ΔG°: -5.813 ± 0.0956 kcal/mol
Xanthine oxidase (XO) [5]; 298 K, read-out: Ka (binding constant) (converted)
  Kd: 54.9 µM
Xanthine oxidase (XO) [5]; 304 K
  Ksv: 1.32 ± 0.03 ×10^4 L mol^−1
  n (number of binding sites): 0.95 ± 0.02
  ΔG°: -5.81 ± 0.0837 kcal/mol
Xanthine oxidase (XO) [5]; 304 K, read-out: Ka (binding constant) (converted)
  Kd: 66.2 µM
Xanthine oxidase (XO) [5]; 310 K
  Ksv: 1.15 ± 0.01 ×10^4 L mol^−1
  n (number of binding sites): 0.87 ± 0.02
  ΔG°: -5.805 ± 0.0669 kcal/mol
Xanthine oxidase (XO) [5]; 310 K, read-out: Ka (binding constant) (converted)
  Kd: 81.3 µM
Xanthine oxidase (XO) [5]; XO 1.0 μM, ECG 15.0 μM
  decrease of 3D fluorescence intensity of XO peak 1 (λex/λem = 280/340 nm): 34.36%
  decrease of 3D fluorescence intensity of XO peak 2 (λex/λem = 230/335 nm): 47.59%
Xanthine oxidase (XO) [5]; van 't Hoff, 298–310 K
  ΔH°: -5.987 ± 0.0478 kcal/mol
  ΔS°: −2.44 ± 0.07 J mol^−1 K^−1
Xanthine oxidase (XO) [6]; [ECG]:[XO] 10:1
  Random Coil content of XO: 25.12 ± 0.69%
  α-Helix content of XO: 10.83 ± 0.51%
  β-Sheet content of XO: 42.51 ± 0.41%
  β-Turn content of XO: 21.65 ± 0.94%
Xanthine oxidase (XO) [6]; [ECG]:[XO] 20:1
  Random Coil content of XO: 24.03 ± 0.31%
  α-Helix content of XO: 10.96 ± 0.62%
  β-Sheet content of XO: 43.41 ± 0.74%
  β-Turn content of XO: 21.59 ± 0.13%
Xanthine oxidase (XO) [6]; [ECG]:[XO] 40:1
  Random Coil content of XO: 22.51 ± 0.24%
  α-Helix content of XO: 11.83 ± 0.93%
  β-Sheet content of XO: 45.02 ± 0.22%
  β-Turn content of XO: 21.39 ± 0.25%
Xanthine oxidase (XO) [7]; Lineweaver–Burk plots
  inhibition type: mixed inhibitor
Xanthine oxidase (XO) [7]; XO−xanthine complex
  αKi: 82.4 ± 0.70 µM
Xanthine oxidase (XO) [7]; dissociation constant, free XO
  Ki: 5.27 ± 0.24 µM
Xanthine oxidase (XO) [7]; plots of ν vs. [XO]
  reversibility of inhibition: reversibly inhibited
[8]
  scavenging rate of O2− radical generated by PMS–NADH system: 55.64%

## O=C(O)/C=C/c1ccc(O)c(O)c1 [caffeic acid]
XO; [9]
  IC50: 7160 µM

## O=C(/C=C/c1ccc(O)c(O)c1)O[C@@H]1C[C@](O)(C(=O)O)C[C@@H](O)[C@H]1O [chlorogenic acid]
XO; [9]
  IC50: 6490 µM

## O=c1c(O)c(-c2ccc(O)cc2)oc2cc(O)cc(O)c12 [kaempferol]
XO; previous study of the authors
  inhibition manner on XO: reversibly inhibited XO activity in a competitive manner

## O=c1c(O)c(-c2cc(O)c(O)c(O)c2)oc2cc(O)cc(O)c12 [myricetin]
XO; [10]
  IC50: 8.66 µM

## O=c1c(O)c(-c2ccc(O)c(O)c2)oc2cc(O)cc(O)c12 [quercetin]
XO; [10]
  IC50: 7.23 µM
